{
  "source": "patent US6632844B1",
  "about": "“Methods and compositions for preserving glucose level in blood specimens” (Washington University, priority 2000, dated 2003)",
  "key": {"heparinized whole blood": {"test_system": "heparinized whole blood", "conditions": "for Decrease (glucose loss) / Glucose at 8 hours / Glucose at 0 Hours: agent at 10 mmol/L; for Decrease (glucose loss): 0 to 8 hours, no additions 41%; for Glucose at 8 hours: 8 hours at room temperature; for Glucose at 8 hours / Glucose at 0 Hours: mean(SD); for ability to preserve specimen glucose (in words): 10 mmol/L, 8 hours; for IC50: read-out: concentration that reduced glycolytic loss by half, 8 hours incubation at room temperature", "source_text": "Whole blood specimens collected in tubes containing sodium heparin as anticoagulant were obtained from healthy adult volunteers or from adult diabetic patients visiting an outpatient clinic, after obtaining informed consent. Specimens were employed for experimentation within one hour of collection. In a few experiments, whole blood heparinized specimens arriving at the clinical laboratory for analysis for glucose and other common analytes were mixed, and aliquots removed for experimental purposes. These studies were conducted in accordance with a protocol approved by the Human Studies Committee of Washington University.\nAliquots of heparinized whole blood (0.96 mL) were pipetted into microfuge tubes containing 0.040 mL of saline or anti-glycolytic agent in saline. Anti-glycolytic agents were prepared as 250 mmol/L stock solutions within one hour of use. At various times plasma was prepared from incubations by centrifugation at 8000×G for two minutes; plasma was decanted to 12×75 mm tubes and stored frozen until analysis. All incubations of whole blood were conducted at room temperature (23°) on a rotating table shaker, which kept the cells in dispersed suspension. d,1-glyceraldehyde, methylgloxal, d-glyceraldehyde, glycolaldehyde and dihydroxyacetone were obtained from Sigma Chem Co. (St. Louis, Mo.). 1-glyceraldehyde was obtained from Fisher Scientific (Pittsburgh, Pa.).\nGlucose analyses were routinely performed on a Cobas-MIRA analyzer (Roche Diagnostic Systems, Montclair, N.J.), employing reagents based on glucose oxidase, manufactured by Sigma Diagnostics (St. Louis, Mo.). In some experiments, glucose and many other common laboratory analyses were performed on a Vitros 250 Analyzer (Ortho-Clinical Diagnostics, Rochester, N.Y.), a Hitachi 747 Analyzer (Boehringer-Mannheim Corp., Indianapolis, Ind.) and a RxL Analyzer (Dade Behring, Inc. Newark, Del.).\nWhole heparinized blood was incubated for 0-8 hours in the presence of 10 mmol/L d,1-GA, and the glycolytic loss of glucose followed over time (FIG. 1).\nWhole heparinized blood was incubated for 8 hours in the presence of 0-10 mmol/L d,1-GA (FIG. 2).\nSeveral compounds related biochemically or structurally to d,1-GA were tested for ability to preserve specimen glucose; incubations without inhibitor and with d,1-GA were included for comparison (Table I). All compounds were tested at a final concentration of 10 mmol/L, and incubations were conducted at 0 hours and 8 hours for each compound. […] To test this possibility, an experiment varying the concentration of 1-GA was performed in analogy with the earlier experiment varying the d,1-GA concentration (see above)."}, "[1]": {"test_system": "erythrocyte potassium homeostasis", "test": "Effect on erythrocyte potassium homeostasis (plasma potassium in whole blood incubations)", "type": "cell-based, human", "conditions": "10 mmol/L d,1-GA; room temperature; 4.0±0 mmol/L at 0 hours", "method": "1-glyceraldehyde was obtained from Fisher Scientific (Pittsburgh, Pa.).\nThe time course of potassium concentration changes was followed for 8 hours in whole blood incubations under three conditions; 1) incubation at room temperature (without additions), 2) incubation at room temperature with 10 mmol/L d,1-GA, and 3) incubation at 4° C. (without additions). In room temperature incubations without additive, potassium decreased modestly from 4.0±0 mmol/L at 0 hours to 3.5±0.1 mmol/L at 8 hours. Incubation for 8 hours in the presence of d,1-GA caused an increase of similar magnitude (to 4.5±0 mmol/L). In contrast, incubation at 4° C., which has been advocated as an effective way to prevent glucose loss for short periods (Lin et al., Clin. Chem., 22:2031-3 (1976)), caused an increase to 6.0±0.1 mmol/L."}, "[2]": {"test_system": "patient whole blood specimens", "test": "Efficacy of d,1-GA in patient specimens: initial glucose vs glucose after 8 hours incubation", "type": "cell-based, human", "conditions": "10 mmol/L d,1-GA", "source_text": "Results are presented by plotting initial glucose concentration against glucose concentrations either in the presence or absence of d,1-GA (FIG. 3)."}},
  "note": "Where two headings read alike, the source gives them in different places.",
  "data": [
    {"smiles": "O=CCO", "note": "[Glycolaldehyde, reference compound]", "values": [
      {"measurement": "Decrease (glucose loss)", "setting": "heparinized whole blood", "value": 52, "unit": "%"},
      {"measurement": "Glucose at 8 hours", "setting": "heparinized whole blood", "value": "2.3(0.1) mmol/L"},
      {"measurement": "Glucose at 0 Hours", "setting": "heparinized whole blood", "value": "4.8(0.1) mmol/L"}
    ]},
    {"smiles": "CC(=O)C=O", "note": "[Methylglyoxal, reference compound]", "values": [
      {"measurement": "ability to preserve specimen glucose (in words)", "setting": "heparinized whole blood", "value": "ineffective"},
      {"measurement": "Decrease (glucose loss)", "setting": "heparinized whole blood", "value": 43, "unit": "%"},
      {"measurement": "Glucose at 8 hours", "setting": "heparinized whole blood", "value": "2.6(0.2) mmol/L"},
      {"measurement": "Glucose at 0 Hours", "setting": "heparinized whole blood", "value": "4.5(1.0) mmol/L"}
    ]},
    {"smiles": "O=C[C@H](O)CO", "note": "[d-GA, d-glyceraldehyde]", "values": [
      {"measurement": "ability to preserve specimen glucose (in words)", "setting": "heparinized whole blood", "value": "only partly effective"},
      {"measurement": "Decrease (glucose loss)", "setting": "heparinized whole blood", "value": 17, "unit": "%"},
      {"measurement": "Glucose at 8 hours", "setting": "heparinized whole blood", "value": "3.9(0.1) mmol/L"},
      {"measurement": "Glucose at 0 Hours", "setting": "heparinized whole blood", "value": "4.7(0.1) mmol/L"}
    ]},
    {"smiles": "O=C(O)C(O)CO", "note": "(stereo not shown) [Glyceric Acid, reference compound]", "values": [
      {"measurement": "Decrease (glucose loss)", "setting": "heparinized whole blood", "value": 42, "unit": "%"},
      {"measurement": "Glucose at 8 hours", "setting": "heparinized whole blood", "value": "2.7(0.2) mmol/L"},
      {"measurement": "Glucose at 0 Hours", "setting": "heparinized whole blood", "value": "4.7(0.1) mmol/L"}
    ]},
    {"smiles": "O=CC(O)CO", "note": "(stereo not shown) [d,1-GA, d,1-glyceraldehyde]", "values": [
      {"measurement": "residual glucose at 8 hours", "setting": "heparinized whole blood; 5 mmol/L d,1-GA, start 4.8±0.1 mmol/L, FIG. 2", "value": "4.6 ± 0.3", "unit": "mmol/L"},
      {"measurement": "loss of glucose at 8 hours", "setting": "heparinized whole blood; 10 mmol/L d,1-GA, FIG. 1, without additive 38% lost", "value": 2, "unit": "%"},
      {"measurement": "Decrease (glucose loss)", "setting": "heparinized whole blood", "value": 0, "unit": "%"},
      {"measurement": "Glucose at 8 hours", "setting": "heparinized whole blood", "value": "4.8(0.1) mmol/L"},
      {"measurement": "Glucose at 0 Hours", "setting": "heparinized whole blood", "value": "4.7(0.2) mmol/L"},
      {"measurement": "IC50", "setting": "heparinized whole blood", "value": "~900", "unit": "µM"},
      {"measurement": "hemolysis", "setting": "heparinized whole blood; whole blood incubation with additive", "value": "did not promote visible hemolysis"},
      {"measurement": "plasma potassium at 8 hours", "setting": "[1]", "value": "4.5 ± 0", "unit": "mmol/L"},
      {"measurement": "reduction of the extent of glucose loss compared with absence of d,1-GA", "setting": "[2]", "value": "more than 7 fold"}
    ]},
    {"smiles": "O=C(CO)[C@@H](O)[C@H](O)[C@@H](O)CO", "note": "[L-Sorbose, reference compound]", "values": [
      {"measurement": "ability to preserve specimen glucose (in words)", "setting": "heparinized whole blood", "value": "not effective"},
      {"measurement": "Decrease (glucose loss)", "setting": "heparinized whole blood", "value": 38, "unit": "%"},
      {"measurement": "Glucose at 8 hours", "setting": "heparinized whole blood", "value": "3.1(0) mmol/L"},
      {"measurement": "Glucose at 0 Hours", "setting": "heparinized whole blood", "value": "5.0(0.1) mmol/L"}
    ]},
    {"smiles": "O=C[C@@H](O)CO", "note": "[1-GA, 1-glyceraldehyde]", "values": [
      {"measurement": "hemolysis", "setting": "heparinized whole blood", "value": "does not cause hemolysis"},
      {"measurement": "elimination of glycolytic loss (in words)", "setting": "heparinized whole blood; 2.5 mmol/L 1-GA, 8 hour incubation, data not shown", "value": "nearly completely effective"},
      {"measurement": "ability to preserve specimen glucose (in words)", "setting": "heparinized whole blood", "value": "completely prevented"},
      {"measurement": "Decrease (glucose loss)", "setting": "heparinized whole blood", "value": 0, "unit": "%"},
      {"measurement": "Glucose at 8 hours", "setting": "heparinized whole blood", "value": "4.8(0.1) mmol/L"},
      {"measurement": "Glucose at 0 Hours", "setting": "heparinized whole blood", "value": "4.8(0.1) mmol/L"},
      {"measurement": "IC50", "setting": "heparinized whole blood", "value": "~650", "unit": "µM"}
    ]}
  ]
}
